System: A498 complex spheroids with HUVEC/MSC, growth
Test: Anticancer human tumor A498 cell line growth inhibition [AhR];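 also: seven day exposure starting three days after spheroid seeding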;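 as to viability, T/C: luminescence signal used as a surrogate for viable cells; luminescence viability scaled so 100% equals DMSO vehicle wells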
Conditions: for IC50: curve of first compound; for viability, T/C: stronger effect = lower value
Procedure, shortened: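 Complex tumor spheroids co-cultured with HUVEC and human MSC stroma; AhR antagonists tested in combination with standard-of-care and investigational agents. Top concentration at or near clinical Cmax (else 10 microM), half-log dilutions; growth expressed as percent test/control.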

[1] = second compound 0.1 µM, first compound 0.0316 µM
[2] = second compound 0.1 µM, first compound 0.1 µM
[3] = second compound 0.1 µM, first compound 0.316 µM
[4] = second compound 0.1 µM, first compound 1 µM
[5] = second compound 0.1 µM, first compound 3.16 µM
[6] = second compound 0.1 µM, first compound 10 µM
[7] = second compound 0.316 µM, first compound 0.0316 µM
[8] = second compound 0.316 µM, first compound 0.1 µM
[9] = second compound 0.316 µM, first compound 0.316 µM
[10] = second compound 0.316 µM, first compound 1 µM
[11] = second compound 0.316 µM, first compound 3.16 µM
[12] = second compound 0.316 µM, first compound 10 µM
[13] = second compound 1 µM, first compound 0.0316 µM
[14] = second compound 1 µM, first compound 0.1 µM
[15] = second compound 1 µM, first compound 0.316 µM
[16] = second compound 1 µM, first compound 1 µM
[17] = second compound 1 µM, first compound 3.16 µM
[18] = second compound 1 µM, first compound 10 µM
[19] = second compound 3.16 µM, first compound 0.0316 µM
[20] = second compound 3.16 µM, first compound 0.1 µM
[21] = second compound 3.16 µM, first compound 0.316 µM
[22] = second compound 3.16 µM, first compound 1 µM
[23] = second compound 3.16 µM, first compound 3.16 µM
[24] = second compound 3.16 µM, first compound 10 µM
[25] = second compound 10 µM, first compound 0.0316 µM
[26] = second compound 10 µM, first compound 0.1 µM
[27] = second compound 10 µM, first compound 0.316 µM
[28] = second compound 10 µM, first compound 1 µM
[29] = second compound 10 µM, first compound 3.16 µM
[30] = second compound 10 µM, first compound 10 µM

`CCc1c2c(nc3ccc(O)cc13)-c1cc3c(c(=O)n1C2)COC(=O)[C@]3(O)CC` + Cc1cncc(-c2nc(NCCc3c[nH]c4ccccc34)c3ncn(C(C)C)c3n2)c1 showed an IC50 (second compound 0.1 µM) of 32.8 nM, an IC50 (second compound 0.316 µM) of 33.7 nM and an IC50 (second compound 1 µM) of 23.6 nM. The IC50 (second compound 3.16 µM) was 14 nM, the IC50 (second compound 10 µM) was < 0.949 nM and the viability, T/C (second compound 0.1 µM, first compound 0.000949 µM) was 78.1%. The viability, T/C (second compound 0.1 µM, first compound 0.003 µM) was 81.4%, the viability, T/C (second compound 0.1 µM, first compound 0.00949 µM) was 70.2% and the viability, T/C (second compound 0.1 µM, first compound 0.03 µM) was 51%. For the same compound, the viability, T/C (second compound 0.1 µM, first compound 0.0949 µM) was 39.1%, the viability, T/C (second compound 0.1 µM, first compound 0.3 µM) was 35.3% and the viability, T/C (second compound 0.316 µM, first compound 0.000949 µM) was 85.7%. It also gave a viability, T/C (second compound 0.316 µM, first compound 0.003 µM) of 76%, a viability, T/C (second compound 0.316 µM, first compound 0.00949 µM) of 67.1% and a viability, T/C (second compound 0.316 µM, first compound 0.03 µM) of 52.7%. The viability, T/C (second compound 0.316 µM, first compound 0.0949 µM) was 36.7%, the viability, T/C (second compound 0.316 µM, first compound 0.3 µM) was 35.2% and the viability, T/C (second compound 1 µM, first compound 0.000949 µM) was 77.1%. For the same compound, the viability, T/C (second compound 1 µM, first compound 0.003 µM) was 72.8%, the viability, T/C (second compound 1 µM, first compound 0.00949 µM) was 66.8% and the viability, T/C (second compound 1 µM, first compound 0.03 µM) was 45.4%. For the same compound, the viability, T/C (second compound 1 µM, first compound 0.0949 µM) was 32.4%, the viability, T/C (second compound 1 µM, first compound 0.3 µM) was 29.1% and the viability, T/C (second compound 3.16 µM, first compound 0.000949 µM) was 50.7%. The viability, T/C (second compound 3.16 µM, first compound 0.003 µM) was 53.5%, the viability, T/C (second compound 3.16 µM, first compound 0.00949 µM) was 58.1% and the viability, T/C (second compound 3.16 µM, first compound 0.03 µM) was 42%. For the same compound, the viability, T/C (second compound 3.16 µM, first compound 0.0949 µM) was 29.1%, the viability, T/C (second compound 3.16 µM, first compound 0.3 µM) was 26.3% and the viability, T/C (second compound 10 µM, first compound 0.000949 µM) was 5.42%. It also gave a viability, T/C (second compound 10 µM, first compound 0.003 µM) of 4.3%, a viability, T/C (second compound 10 µM, first compound 0.00949 µM) of 6.41% and a viability, T/C (second compound 10 µM, first compound 0.03 µM) of 7.12%. The viability, T/C (second compound 10 µM, first compound 0.0949 µM) was 5.73% and the viability, T/C (second compound 10 µM, first compound 0.3 µM) was 4.65%.
In the case of `Nc1ccccc1NC(=O)c1ccc(CNC(=O)OCc2cccnc2)cc1` + Cc1cncc(-c2nc(NCCc3c[nH]c4ccccc34)c3ncn(C(C)C)c3n2)c1, the IC50 (second compound 0.1 µM) is reported as 1220 nM, the IC50 (second compound 0.316 µM) is reported as 1260 nM and the IC50 (second compound 1 µM) is reported as 1150 nM. The IC50 (second compound 3.16 µM) was 221 nM, the IC50 (second compound 10 µM) was < 31.6 nM and the viability, T/C [1] was 82.6%. The viability, T/C [2] was 79.7%, the viability, T/C [3] was 70.5% and the viability, T/C [4] was 57.8%. It also gave a viability, T/C [5] of 23%, a viability, T/C [6] of 2.08% and a viability, T/C [7] of 83.6%. The viability, T/C [8] was 84%, the viability, T/C [9] was 84% and the viability, T/C [10] was 53.7%. For the same compound, the viability, T/C [11] was 24%, the viability, T/C [12] was 1.77% and the viability, T/C [13] was 83.8%. For the same compound, the viability, T/C [14] was 78.5%, the viability, T/C [15] was 72.8% and the viability, T/C [16] was 56.1%. The viability, T/C [17] was 18.1%, the viability, T/C [18] was 2.18% and the viability, T/C [19] was 50.4%. The viability, T/C [20] was 49.9%, the viability, T/C [21] was 51.5% and the viability, T/C [22] was 41.2%. It also gave a viability, T/C [23] of 16.9%, a viability, T/C [24] of 1.1% and a viability, T/C [25] of 3.86%. The viability, T/C [26] was 3.69%, the viability, T/C [27] was 2.11% and the viability, T/C [28] was 1.29%. For the same compound, the viability, T/C [29] was 0.5% and the viability, T/C [30] was 0.86%.
With `Nc1ccn(C2OC(CO)C(O)C2(F)F)c(=O)n1` (stereo not given) + Cc1cncc(-c2nc(NCCc3c[nH]c4ccccc34)c3ncn(C(C)C)c3n2)c1 the IC50 (second compound 0.1 µM) was < 31.6 nM, the IC50 (second compound 0.316 µM) was < 31.6 nM and the IC50 (second compound 1 µM) was < 31.6 nM. For the same compound, the IC50 (second compound 3.16 µM) was < 31.6 nM, the IC50 (second compound 10 µM) was < 31.6 nM and the viability, T/C [1] was 26.9%. For the same compound, the viability, T/C [2] was 33.5%, the viability, T/C [3] was 41.7% and the viability, T/C [4] was 41.2%. It also gave a viability, T/C [5] of 36.5%, a viability, T/C [6] of 39.1% and a viability, T/C [7] of 29%. The viability, T/C [8] was 32%, the viability, T/C [9] was 42.7% and the viability, T/C [10] was 43.7%. For the same compound, the viability, T/C [11] was 41.9%, the viability, T/C [12] was 39.9% and the viability, T/C [13] was 32.7%. For the same compound, the viability, T/C [14] was 26.5%, the viability, T/C [15] was 39.7% and the viability, T/C [16] was 42.2%. For the same compound, the viability, T/C [17] was 39.5%, the viability, T/C [18] was 34% and the viability, T/C [19] was 45.1%. The viability, T/C [20] was 27.8%, the viability, T/C [21] was 28.7% and the viability, T/C [22] was 30.5%. The viability, T/C [23] was 28.8%, the viability, T/C [24] was 33% and the viability, T/C [25] was 4.54%. It also gave a viability, T/C [26] of 4.79%, a viability, T/C [27] of 5.17% and a viability, T/C [28] of 3.59%. For the same compound, the viability, T/C [29] was 3.85% and the viability, T/C [30] was 5.49%.
`O=C(c1cc(Cc2n[nH]c(=O)c3ccccc23)ccc1F)N1CCN(C(=O)C2CC2)CC1` + Cc1cncc(-c2nc(NCCc3c[nH]c4ccccc34)c3ncn(C(C)C)c3n2)c1 was tested, and the IC50 (second compound 0.1 µM) was > 10000 nM, the IC50 (second compound 0.316 µM) was > 10000 nM and the IC50 (second compound 1 µM) was > 10000 nM. For the same compound, the IC50 (second compound 3.16 µM) was > 10000 nM, the IC50 (second compound 10 µM) was < 31.6 nM and the viability, T/C [1] was 96.9%. The viability, T/C [2] was 93.8%, the viability, T/C [3] was 89.2% and the viability, T/C [4] was 88.5%. For the same compound, the viability, T/C [5] was 89.2%, the viability, T/C [6] was 87.3% and the viability, T/C [7] was 102%. For the same compound, the viability, T/C [8] was 101%, the viability, T/C [9] was 97.9% and the viability, T/C [10] was 94.7%. For the same compound, the viability, T/C [11] was 93.8%, the viability, T/C [12] was 86% and the viability, T/C [13] was 92.8%. For the same compound, the viability, T/C [14] was 89.4%, the viability, T/C [15] was 93.8% and the viability, T/C [16] was 88.8%. It also gave a viability, T/C [17] of 84%, a viability, T/C [18] of 86% and a viability, T/C [19] of 56.3%. The viability, T/C [20] was 62.5%, the viability, T/C [21] was 59.8% and the viability, T/C [22] was 58.2%. For the same compound, the viability, T/C [23] was 54.3%, the viability, T/C [24] was 57.7% and the viability, T/C [25] was 4.54%. It also gave a viability, T/C [26] of 4.29%, a viability, T/C [27] of 4.31% and a viability, T/C [28] of 4.01%. The viability, T/C [29] was 4.31% and the viability, T/C [30] was 6.37%.

Reference: PubChem BioAssay AID1919007 (Molecular Pharmacology Branch, DTP, NCI, 2023)
